Measurements as given in patent US5624923A, “Tricyclic diazepine vasopressin antagonists and oxytocin antagonists” (priority 1995, dated 1997).

Columns and labels:
[1] = target: T1, V1 Receptor Subtype in Human Platelet (Homo sapiens, UniProt P37288); test: Binding to Vasopressin V1 receptor subtype in Human Platelet Membranes; details: human platelet membranes;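 further: reported value is IC50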
T1 construct: tissue Hudson Valley Blood Services, Westchester Medical Center, Valhalla, N.Y; host or cells: human platelets (frozen platelet rich plasma)
T1 sequence (P37288 whole entry): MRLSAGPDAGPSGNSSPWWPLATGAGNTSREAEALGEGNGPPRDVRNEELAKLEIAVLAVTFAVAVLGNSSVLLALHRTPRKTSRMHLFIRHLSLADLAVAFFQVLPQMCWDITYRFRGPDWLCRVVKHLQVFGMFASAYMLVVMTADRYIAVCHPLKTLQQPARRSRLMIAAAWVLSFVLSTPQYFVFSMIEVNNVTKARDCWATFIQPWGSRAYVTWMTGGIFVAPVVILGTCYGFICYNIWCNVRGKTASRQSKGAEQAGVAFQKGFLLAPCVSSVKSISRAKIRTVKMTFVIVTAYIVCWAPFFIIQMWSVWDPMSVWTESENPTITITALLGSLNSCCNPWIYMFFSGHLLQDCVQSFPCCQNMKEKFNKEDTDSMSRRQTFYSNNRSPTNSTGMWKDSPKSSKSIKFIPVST

Vasopressin V2 = Vasopressin V2 Antagonist Activity in Conscious Hydrated Rats; format: in vivo, rat; details: 10 mg/kg orally, AVP 0.4 μg/kg i.p.
Method in brief: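 Four-hour urine output, osmolality and electrolytes (Na+, K+, Cl−) recorded in water-loaded rats (30 mL/kg deionized water orally) given AVP i.p. at 0.4 μg/kg. Test compounds were given orally at 0.1–100 mg/kg 1 h before AVP; 2–4 rats per compound.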

Vasopressin V1 = Vasopressin V1 Antagonist Activity in Conscious Rats (vasopressin vasopressor response); format: in vivo, rat
Method in brief: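 Conscious rats are restrained supine, and under local 2% procaine a PE 10/20 cannula is passed through the ventral caudal tail artery into the lower abdominal aorta. The caudal vein is cannulated for intravenous dosing. Blood pressure is recorded with a Statham P23Db transducer, and vasopressin injections are repeated after compound dosing. Percent antagonism is calculated against the pre-drug vasopressor response taken as 100%.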

Rat Hepatic V1 Receptors = target: T2, Rat Hepatic V1 Receptors (Rattus norvegicus, UniProt P30560); test: Binding Assay to Rat Hepatic V1 Receptors; details: rat liver membranes; read-out: V1 IC50
T2 construct: Rat liver plasma membranes expressing the vasopressin V1 receptor subtypes; from tissue; host or cells: rat liver plasma membranes
T2 sequence (P30560 whole entry): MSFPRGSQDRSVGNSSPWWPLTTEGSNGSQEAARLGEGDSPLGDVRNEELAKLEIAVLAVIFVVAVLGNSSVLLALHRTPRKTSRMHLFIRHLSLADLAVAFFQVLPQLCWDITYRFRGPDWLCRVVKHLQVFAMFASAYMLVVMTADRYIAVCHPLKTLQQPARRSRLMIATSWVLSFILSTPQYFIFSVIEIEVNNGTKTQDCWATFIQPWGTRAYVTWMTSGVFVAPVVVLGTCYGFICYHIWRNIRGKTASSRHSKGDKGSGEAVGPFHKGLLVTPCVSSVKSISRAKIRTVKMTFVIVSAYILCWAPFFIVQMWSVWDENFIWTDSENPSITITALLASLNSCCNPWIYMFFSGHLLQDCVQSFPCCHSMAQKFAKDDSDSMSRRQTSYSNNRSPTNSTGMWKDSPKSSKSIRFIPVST

Row | SMILES | IC50 [1] [nM] | IC50 (Rat Hepatic V1 Receptors) [nM] | Osmolality (Vasopressin V2) [mOsm/kg] | Urine Volume (Vasopressin V2) [ml/4 hrs] | Max. % Inhibition (Vasopressin V1; 30 mg/kg i.v.) [%] | Time (of max. % inhibition) (Vasopressin V1; 30 mg/kg i.v.) [min] | Max. % Inhibition (Vasopressin V1; 10 mg/kg i.v.) [%] | Time (of max. % inhibition) (Vasopressin V1; 10 mg/kg i.v.) [min] | Max. % Inhibition (Vasopressin V1; 30 mg/kg p.o.) [%] | Time (of max. % inhibition) (Vasopressin V1; 30 mg/kg p.o.) [min]
1 | Cc1cccc(C(=O)Nc2ccc(C(=O)N3Cc4cccn4Cc4ccccc43)c(Cl)c2)c1C [Example 525, N-[4-(5H-pyrrolo[2,1-c][1,4]benzodiazepin-10(11H)-ylcarbonyl]-3-chlorophenyl]-2,3-dimethylbenzamide] | 430 | – | 557 | 13 | 70 | 60 | – | – | – | –
2 | O=C(Nc1ccc(C(=O)N2Cc3ccnn3Cc3ccccc32)cc1)c1ccc(Cl)cc1Cl [Example 217, N-[4-(4H-Pyrazolo[5,1-c][1,4]benzo-diazepin-5(10H)-ylcarbonyl)phenyl]-2,4-dichlorobenzamide] | 190 | 68 | 466 | 14.3 | 57 | 90 | – | – | – | –
3 | O=C(Nc1ccc(C(=O)N2Cc3cccn3Cc3ccccc32)c(Cl)c1)c1ccccc1C(F)(F)F [Example 528, N-[4-(5H-pyrrolo[2,1-c][1,4]benzodiazepin-10(11H)-ylcarbonyl]-3-chlorophenyl]-2-(trifluoromethyl)benzamide] | 200 | – | 647 | 11.3 | 66 | 300 | – | – | – | –
4 | O=C(Nc1ccc(C(=O)N2Cc3cccn3Cc3ccccc32)cc1)c1cc([N+](=O)[O-])ccc1Cl [Example 480, N-[4-(5H-pyrrolo[2,1-c][1,4]benzodiazepin-10(11H)-ylcarbonyl)phenyl]-2-chloro-5-nitrobenzamide] | 540 | – | 827 | 8.8 | – | – | 29 | 300 | – | –
5 | O=C(Nc1ccc(C(=O)N2Cc3cccn3Cc3sccc32)cc1)c1ccc(Cl)cc1Cl [Example 274, N-(4-(5H-pyrrolo[1,2-a]thieno-[3,2-e][1,4]diazepin-4(10H)-ylcarbonyl)phenyl]-2,4-dichloro-benzamide] | 240 | – | 1177 | 3 | – | – | 59 | 300 | – | –
6 | COc1cc(C(=O)N2Cc3cccn3Cc3ccccc32)ccc1NC(=O)c1ccc(Cl)cc1Cl [Example 478, N-[4-(5H-pyrrolo[2,1-c][1,4]benzodiazepin-10(11H)-ylcarbonyl)-2-methoxy-phenyl]-2,4-dichlorobenzamide] | 32 | – | 1399 | 3 | – | – | 76 | 120 | – | –
7 | O=C(Nc1ccc(C(=O)N2Cc3cccn3Cc3ccccc32)cc1)C(O)c1ccccc1 (racemic) [Example 588, (±) α-Hydroxy-N-[4-(5H-pyrrolo[2,1c][1,4]benzodiazepin-10(11H)-ylcarbonyl)phenyl]benzeneacetamide] | – | 40 | 687 | 9.5 | – | – | 65 | 90 | 80 | 120

Continued by falling IC50 [1], values first:

Row | IC50 [1] [nM] | IC50 (Rat Hepatic V1 Receptors) [nM] | SMILES | Osmolality (Vasopressin V2) [mOsm/kg] | Urine Volume (Vasopressin V2) [ml/4 hrs] | Max. % Inhibition (Vasopressin V1; 30 mg/kg i.v.) [%] | Time (of max. % inhibition) (Vasopressin V1; 30 mg/kg i.v.) [min] | Max. % Inhibition (Vasopressin V1; 10 mg/kg i.v.) [%] | Time (of max. % inhibition) (Vasopressin V1; 10 mg/kg i.v.) [min] | Max. % Inhibition (Vasopressin V1; 30 mg/kg p.o.) [%] | Time (of max. % inhibition) (Vasopressin V1; 30 mg/kg p.o.) [min]
8 | 26 | – | O=C(Nc1ccc(C(=O)N2Cc3cccn3Cc3ccccc32)c(Cl)c1)c1ccc(F)cc1Cl [Example 527, N-[4-(5H-pyrrolo[2,1-c][1,4]benzodiazepin-10(11H)-ylcarbonyl]-3-chlorophenyl]-4-fluoro-2-chlorobenzamide] | 430 | 19.5 | 85 | 180 | – | – | – | –
9 | 23 | – | COc1cc(C(=O)N2Cc3cccn3Cc3ccccc32)ccc1NC(=O)c1cccc(F)c1C [Example 479, N-[4-(5H-pyrrolo[2,1-c][1,4]benzodiazepin-10(11H)-ylcarbonyl)-2-methoxy-phenyl]-3-fluoro-2-methylbenzamide] | 1042 | 6 | – | – | 83 | 60 | 69 | 90
10 | 3 | – | Cc1ccccc1C(=O)Nc1ccc(C(=O)N2Cc3cccn3Cc3ccccc32)cc1Cl [Example 530, N-[4-(5H-Pyrrolo[2,1-c][1,4]benzodiazepin-10(11H)-ylcarbonyl)-2-chlorophenyl]-2-methylbenzamide] | 914 | 6 | 89 | 120 | – | – | – | –
11 | 3 | – | COc1cc(C(=O)N2Cc3cccn3Cc3ccccc32)ccc1NC(=O)c1ccccc1C [Example 477, N-[4-(5H-pyrrolo[2,1-c][1,4]benzodiazepin-10(11H)-ylcarbonyl)-2-methoxy-phenyl]-2-methylbenzamide] | 701 | 5.3 | – | – | 88 | 180 | 82 | 30
